Usually MIC stands for the least concentration at which growth counts as inhibited. Read a high MIC as a less susceptible organism.

Molecules are shown by their SMILES. Converted amounts (≈) assume the structure as drawn. A value given as a limit tells only on which side of the number the result lay.

The experiment concerns Staphylococcus aureus. The experiment can be described thus: Antibacterial activity against methicillin-sensitive Staphylococcus aureus ATCC 29213 after 16 to 20 hrs by broth microdilution method. It counts as functional. (In general: Broth dilution looks for growth in wells or tubes with falling amounts of substance.)
As for `Oc1c(F)cc(-c2nc(-c3ccc(Oc4ccc(C(F)(F)F)cc4)cc3)no2)cc1F`, the minimum inhibitory concentration (MIC) was 2 µg/mL (≈ 4.6 µM). Turning to `Fc1ccc(Oc2ccc(-c3noc(-c4cc[nH]c4)n3)cc2)cc1`, the MIC was at least 128 µg/mL.

`O=[N+]([O-])c1c[nH]nc1-c1nc(-c2ccc(Oc3ccc(C(F)(F)F)cc3)cc2)no1` registered a minimal inhibitory concentration (MIC) of 2 µg/mL (≈ 4.79 µM). To `FC(F)(F)c1ccc(Oc2ccc(-c3noc(-c4n[nH]c5ccccc45)n3)cc2)cc1` belongs at least 128 µg/mL; to `COc1cc(-c2nc(-c3ccc(Oc4ccc(C(F)(F)F)cc4)cc3)no2)ccc1O`, at least 128 µg/mL; to `NS(=O)(=O)c1ccc(-c2nc(-c3ccc(Oc4ccc(F)cc4)cc3)no2)cc1`, at least 128 µg/mL. The compound `Oc1ccc(-c2nc(-c3ccc(Oc4ccc(C(F)(F)F)cc4)cc3)no2)cc1O` yielded an MIC of 2 µg/mL (≈ 4.83 µM).

In turn, `OCC#Cc1c[nH]nc1-c1nc(-c2ccc(Oc3ccc(C(F)(F)F)cc3)cc2)no1` came in with an MIC of 4 µg/mL (≈ 9.38 µM). This MIC is about 2-fold higher than that of the compound before.

Turning to `CCn1ccc(-c2nc(-c3ccc(Oc4ccc(F)cc4)cc3)no2)n1`, the MIC was at least 128 µg/mL. With `FC(F)(F)c1ccc(Oc2ccc(-c3noc(-c4n[nH]cc4NC4CCCCC4)n3)cc2)cc1` the figure was at least 128 µg/mL; with `CC(=O)Nc1ccc(-c2nc(-c3ccc(Oc4ccc(C(F)(F)F)cc4)cc3)no2)cc1`, at least 128 µg/mL. With `COc1ccc(-c2nc(-c3ccc(Oc4ccc(F)cc4)cc3)no2)cc1OC` the figure was at least 128 µg/mL; with `FC(F)(F)c1ccc(Oc2ccc(-c3noc(-c4n[nH]cc4Br)n3)cc2)cc1`, 1 µg/mL (≈ 2.22 µM); with `CC(=O)N1CCC(c2nc(-c3ccc(Oc4ccc(F)cc4)cc3)no2)CC1`, at least 128 µg/mL. For the compound `FC(F)(F)c1ccc(Oc2ccc(-c3noc(-c4cc[nH]n4)n3)cc2)cc1`, the MIC was at least 128 µg/mL.

In turn, `COC(=O)c1ccc(-c2nc(-c3ccc(Oc4ccc(F)cc4)cc3)no2)cc1` yielded an MIC of at least 128 µg/mL. The compound `O=P(O)(O)c1ccc(-c2nc(-c3ccc(Oc4ccc(F)cc4)cc3)no2)cc1` gave a minimal inhibitory concentration (MIC) of at least 128 µg/mL. Consider `O=[N+]([O-])c1ccc(-c2nc(-c3ccc(Oc4ccccc4)cc3)no2)cc1`, for which the minimum inhibitory concentration (MIC) is at least 32 µg/mL. Compound `Clc1c[nH]nc1-c1nc(-c2ccc(Oc3ccccc3)cc2)no1` registered a minimal inhibitory concentration (MIC) of 1 µg/mL (≈ 2.95 µM).

With `Oc1ccc(-c2nc(-c3ccc(Oc4ccccc4)cc3)no2)cc1F`, the minimal inhibitory concentration (MIC) turned out to be 4 µg/mL (≈ 11.5 µM). Against the preceding compound, the MIC is about 4-fold higher. For `Oc1ccc(-c2nc(-c3ccc(Oc4ccc(F)cc4)cc3)no2)cn1`, the minimal inhibitory concentration (MIC) was at least 128 µg/mL. To `Nc1c[nH]nc1-c1nc(-c2ccc(Oc3ccc(F)cc3)cc2)no1` belongs 16 µg/mL (≈ 47.4 µM); to `O=[N+]([O-])c1c[nH]nc1-c1nc(-c2ccc(Oc3ccccc3)cc2)no1`, 2 µg/mL (≈ 5.73 µM). `Nc1c(F)cc(-c2nc(-c3ccc(Oc4ccc(C(F)(F)F)cc4)cc3)no2)cc1F` displayed an MIC of 4 µg/mL (≈ 9.23 µM).

For `FC(F)(F)c1ccc(Oc2ccc(-c3noc(-c4cn[nH]n4)n3)cc2)cc1`, the minimal inhibitory concentration (MIC) stood at 16 µg/mL (≈ 42.9 µM). With `O=[N+]([O-])c1ccc(-c2nc(-c3ccc(Oc4ccc(C(F)(F)F)cc4)cc3)no2)cc1` the figure was at least 128 µg/mL. On to `NS(=O)(=O)c1ccc(-c2nc(-c3ccc(Oc4ccc(C(F)(F)F)cc4)cc3)no2)cc1`, for which the minimum inhibitory concentration (MIC) was at least 128 µg/mL. For the compound `CC(C)c1cc(-c2nc(-c3ccc(Oc4ccc(F)cc4)cc3)no2)n[nH]1`, the MIC was at least 128 µg/mL. Regarding `Nc1ccc(-c2nc(-c3ccc(Oc4ccccc4)cc3)no2)cc1F`, the minimal inhibitory concentration (MIC) is at least 128 µg/mL.

On to `FC(F)(F)c1ccc(Oc2ccc(-c3noc(-c4ccc(Br)cc4)n3)cc2)cc1`, for which the MIC was at least 128 µg/mL.

As to `Fc1ccc(Oc2ccc(-c3noc(-c4c[nH]cn4)n3)cc2)cc1`, the MIC is at least 128 µg/mL.

Consider `Oc1ccc(Cc2nc(-c3ccc(Oc4ccccc4)cc3)no2)cc1`, for which it took 8 µg/mL (≈ 23.2 µM) to inhibit growth (MIC).

The compound `Cc1nc(-c2ccc(Oc3ccccc3)cc2)no1` showed an MIC of at least 128 µg/mL. With `N#Cc1c[nH]nc1-c1nc(-c2ccc(Oc3ccc(C(F)(F)F)cc3)cc2)no1`, the minimal inhibitory concentration (MIC) turned out to be 2 µg/mL (≈ 5.03 µM).

Take `Oc1c(F)cc(-c2nc(-c3ccc(Oc4ccc(F)cc4)cc3)no2)cc1F`: 8 µg/mL (≈ 20.8 µM) was the least that counted as inhibitory (MIC). The compound `Cl.c1ccc(Oc2ccc(-c3noc(C4CCCN4)n3)cc2)cc1` (stereo not given) registered a minimal inhibitory concentration (MIC) of 64 µg/mL. `O=C1C[C@H](c2nc(-c3ccc(Oc4ccc(C(F)(F)F)cc4)cc3)no2)CN1` gave an MIC of at least 128 µg/mL. The compound `Brc1c[nH]nc1-c1nc(-c2ccc(Oc3ccccc3)cc2)no1` showed an MIC of 1 µg/mL (≈ 2.61 µM).

The compound `O=[N+]([O-])c1c[nH]c(-c2nc(-c3ccc(Oc4ccc(C(F)(F)F)cc4)cc3)no2)c1` gave an MIC of 8 µg/mL (≈ 19.2 µM). Compared with the last compound, the MIC is about 8-fold higher. The compound `O=[N+]([O-])c1c[nH]c(-c2nc(-c3ccc(Oc4ccc(F)cc4)cc3)no2)c1` registered an MIC of at least 128 µg/mL. With `Nc1ccc(-c2nc(-c3ccc(Oc4ccc(C(F)(F)F)cc4)cc3)no2)cc1F` the figure was 2 µg/mL (≈ 4.82 µM); with `Cl.Nc1ccc(-c2nc(-c3ccc(Oc4ccc(C(F)(F)F)cc4)cc3)no2)cc1`, 1 µg/mL; with `COc1ccc(-c2nc(-c3ccc(Oc4ccccc4)cc3)no2)cc1[N+](=O)[O-]`, at least 128 µg/mL. Turning to `COc1ccc(-c2nc(-c3ccc(Oc4ccccc4)cc3)no2)cc1N`, the MIC was at least 128 µg/mL. In turn, `Oc1ccc(-c2nc(-c3ccc(Oc4ccc(F)cc4)cc3)no2)cc1O` gave a minimal inhibitory concentration (MIC) of 4 µg/mL (≈ 11 µM). To `FC(F)(F)c1ccc(Oc2ccc(-c3noc(-c4n[nH]cc4NC4CCCC4)n3)cc2)cc1` belongs at least 128 µg/mL; to `COc1ccc(-c2nc(-c3ccc(Oc4ccc(C(F)(F)F)cc4)cc3)no2)cc1[N+](=O)[O-]`, at least 128 µg/mL; to `Nc1cncc(-c2nc(-c3ccc(Oc4ccc(F)cc4)cc3)no2)c1`, at least 128 µg/mL. With `COc1cc(-c2nc(-c3ccc(Oc4ccccc4)cc3)no2)ccc1N` the figure was at least 128 µg/mL. For `c1ccc(Oc2ccc(-c3noc(-c4ccc5[nH]ccc5c4)n3)cc2)cc1`, 2 µg/mL (≈ 5.66 µM) was the least that counted as inhibitory (MIC).

The compound `Nc1c[nH]c(-c2nc(-c3ccc(Oc4ccc(F)cc4)cc3)no2)c1` displayed a minimal inhibitory concentration (MIC) of at least 128 µg/mL.

Take `O=[N+]([O-])c1cc(-c2nc(-c3ccc(Oc4ccc(F)cc4)cc3)no2)ccc1O`: the MIC is at least 128 µg/mL. Regarding `Fc1ccc(-c2nc(-c3ccc(Oc4ccc(C(F)(F)F)cc4)cc3)no2)cc1`, the MIC is at least 128 µg/mL. To `Oc1cc(-c2nc(-c3ccc(Oc4ccccc4)cc3)no2)ccc1I` belongs at least 128 µg/mL; to `CS(=O)(=O)Nc1ccc(-c2nc(-c3ccc(Oc4ccc(C(F)(F)F)cc4)cc3)no2)cc1`, at least 128 µg/mL; to `O=C(Nc1c[nH]nc1-c1nc(-c2ccc(Oc3ccc(C(F)(F)F)cc3)cc2)no1)c1ccccn1`, at least 128 µg/mL.

In the case of `C=CCOc1cc(N)ccc1-c1nc(-c2ccc(Oc3ccccc3)cc2)no1`, the MIC is 8 µg/mL (≈ 20.8 µM). Turning to `O=[N+]([O-])c1c[nH]nc1-c1nc(-c2ccc(Oc3ccc(F)cc3)cc2)no1`, the MIC was determined as 1 µg/mL (≈ 2.72 µM). This MIC is about 8-fold lower than that of the compound before. As for `Nc1c[nH]nc1-c1nc(-c2ccc(Oc3ccccc3)cc2)no1`, the MIC amounted to 16 µg/mL (≈ 50.1 µM). Consider `Cl.c1ccc(Oc2ccc(-c3noc(C4CCNCC4)n3)cc2)cc1`, for which the minimum inhibitory concentration (MIC) stood at 32 µg/mL. Against the preceding compound, the MIC is about 2-fold higher. As to `O=[N+]([O-])c1cc(-c2nc(-c3ccc(Oc4ccc(C(F)(F)F)cc4)cc3)no2)cnc1O`, 8 µg/mL (≈ 18 µM) was the least that counted as inhibitory (MIC). Consider `Nc1c[nH]nc1-c1nc(-c2ccc(Oc3ccc(C(F)(F)F)cc3)cc2)no1`, for which inhibition of growth (MIC) required 4 µg/mL (≈ 10.3 µM). `NCCCCc1nc(-c2ccc(Oc3ccccc3)cc2)no1` yielded a minimal inhibitory concentration (MIC) of at least 128 µg/mL. To `Fc1ccc(Oc2ccc(-c3noc(-c4n[nH]cc4I)n3)cc2)cc1` belongs 4 µg/mL (≈ 8.92 µM); to `Fc1ccc(Oc2ccc(-c3noc(-c4ccc(Br)cc4)n3)cc2)cc1`, at least 128 µg/mL.
